# Reference: ChEMBL document CHEMBL1909294, “Translating clinical findings into knowledge in drug safety evaluation--drug induced liver injury prediction system (DILIps)” (PLoS Comput Biol, 2011)
# Assays:
# Hepatotoxicity [1] = system: Hepatotoxicity;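 for HepSE Combined Scores: combined hepatic side effect score as listed in the training data of the Drug Induced Liver Injury Prediction System (DILIps)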;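 for HepSE bilirubinemia: bilirubinemia hepatic side effect score drawn from the DILIps training data, a prediction system for drug-induced liver injury; call rule not given here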;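 for HepSE cirrhosis: cirrhosis hepatic side effect score taken from the DILIps (drug-induced liver injury prediction) training set; call rule not given here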;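 for HepSE hepatomegaly: hepatic side effect score for hepatomegaly, taken from the training set of the DILIps drug-induced liver injury prediction system; call rule not given here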;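 for HepSE jaundice: Jaundice-related hepatic side-effect score drawn from the training data of the DILIps (drug-induced liver injury prediction system); call rule not given here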; for HepSE liver disease: call rule not given here;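 for HepSE liver function tests abnormal: hepatic side effect score taken from the DILIps (drug-induced liver injury prediction system) training data, here covering abnormal liver function test findings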
# Hepatotoxicity [2] = system: Hepatotoxicity; remark: listed apart in the source;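 for HepSE bilirubinemia: bilirubinemia hepatic side effect score drawn from the DILIps training data, a prediction system for drug-induced liver injury; call rule not given here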;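 for HepSE cirrhosis: cirrhosis hepatic side effect score taken from the DILIps (drug-induced liver injury prediction) training set; call rule not given here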;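 for HepSE hepatomegaly: hepatic side effect score for hepatomegaly, taken from the training set of the DILIps drug-induced liver injury prediction system; call rule not given here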;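 for HepSE jaundice: Jaundice-related hepatic side-effect score drawn from the training data of the DILIps (drug-induced liver injury prediction system); call rule not given here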; for HepSE liver disease: call rule not given here;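 for HepSE liver function tests abnormal: hepatic side effect score taken from the DILIps (drug-induced liver injury prediction system) training data, here covering abnormal liver function test findings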
# Hepatotoxicity [3] = system: Hepatotoxicity; remark: listed apart in the source;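 for HepSE bilirubinemia: bilirubinemia hepatic side effect score drawn from the DILIps training data, a prediction system for drug-induced liver injury; call rule not given here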;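 for HepSE cirrhosis: cirrhosis hepatic side effect score taken from the DILIps (drug-induced liver injury prediction) training set; call rule not given here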;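 for HepSE hepatomegaly: hepatic side effect score for hepatomegaly, taken from the training set of the DILIps drug-induced liver injury prediction system; call rule not given here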;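 for HepSE jaundice: Jaundice-related hepatic side-effect score drawn from the training data of the DILIps (drug-induced liver injury prediction system); call rule not given here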; for HepSE liver disease: call rule not given here;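 for HepSE liver function tests abnormal: hepatic side effect score taken from the DILIps (drug-induced liver injury prediction system) training data, here covering abnormal liver function test findings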
# Hepatotoxicity [4] = system: Hepatotoxicity; remark: listed apart in the source;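 for HepSE bilirubinemia: bilirubinemia hepatic side effect score drawn from the DILIps training data, a prediction system for drug-induced liver injury; call rule not given here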;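 for HepSE cirrhosis: cirrhosis hepatic side effect score taken from the DILIps (drug-induced liver injury prediction) training set; call rule not given here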;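 for HepSE hepatomegaly: hepatic side effect score for hepatomegaly, taken from the training set of the DILIps drug-induced liver injury prediction system; call rule not given here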;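 for HepSE jaundice: Jaundice-related hepatic side-effect score drawn from the training data of the DILIps (drug-induced liver injury prediction system); call rule not given here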; for HepSE liver disease: call rule not given here;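 for HepSE liver function tests abnormal: hepatic side effect score taken from the DILIps (drug-induced liver injury prediction system) training data, here covering abnormal liver function test findings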
# Hepatotoxicity [5] = system: Hepatotoxicity; remark: listed apart in the source; for HepSE liver disease: call rule not given here
# Hepatotoxicity [6] = system: Hepatotoxicity; remark: listed apart in the source; for HepSE liver disease: call rule not given here
# Hepatotoxicity [7] = system: Hepatotoxicity; remark: listed apart in the source
# Hepatotoxicity [8] = system: Hepatotoxicity; remark: listed apart in the source
# Hepatotoxicity [9] = system: Hepatotoxicity; remark: listed apart in the source
# Hepatotoxicity [10] = system: Hepatotoxicity; remark: listed apart in the source
# Hepatotoxicity [11] = system: Hepatotoxicity; remark: listed apart in the source
# Hepatotoxicity [12] = system: Hepatotoxicity; remark: listed apart in the source
# Hepatotoxicity [13] = system: Hepatotoxicity; remark: listed apart in the source
# Hepatotoxicity [14] = system: Hepatotoxicity; remark: listed apart in the source
Compound,HepSE_bilirubinemia (Hepatotoxicity [1]),HepSE_liver disease (Hepatotoxicity [2]),HepSE_jaundice (Hepatotoxicity [3]),HepSE_hepatic necrosis (Hepatotoxicity [4]),HepSE_hepatomegaly (Hepatotoxicity [5]),HepSE_liver function tests abnormal (Hepatotoxicity [6]),HepSE_cirrhosis (Hepatotoxicity [7]),HepSE_Combined Scores (Hepatotoxicity [8]),HepSE_hepatitis (Hepatotoxicity [9]),HepSE_hepatic failure (Hepatotoxicity [10]),HepSE_liver fatty (Hepatotoxicity [11]),HepSE_cholelithiasis (Hepatotoxicity [12]),HepSE_cholecystitis (Hepatotoxicity [13]),HepSE_elevated liver function tests (Hepatotoxicity [14]),further results
O=C1Cc2cc(CCN3CCN(c4nsc5ccccc45)CC3)c(Cl)cc2N1 [ZIPRASIDONE],0,0,1,0,1,0,0,4,1,0,1,0,0,0,–
II [IODINE],0,0,0,0,0,0,0,1,1,0,0,0,0,0,–
Cc1cc(C(=O)NNCc2ccccc2)no1 [ISOCARBOXAZID],0,0,0,0,0,0,0,0,0,0,0,0,0,0,–
CCCc1nc(C(C)(C)O)c(C(=O)OCc2oc(=O)oc2C)n1Cc1ccc(-c2ccccc2-c2nnn[nH]2)cc1 [OLMESARTAN MEDOXOMIL],0,0,1,0,0,0,0,1,0,0,0,0,0,0,–
COc1cc([C@@H]2c3cc4c(cc3[C@@H](O[C@@H]3O[C@@H]5CO[C@@H](C)O[C@H]5[C@H](O)[C@H]3O)[C@H]3COC(=O)[C@H]23)OCO4)cc(OC)c1O [ETOPOSIDE],–,–,–,–,–,–,–,–,–,–,–,–,–,–,HepSE_bilirubinemia (Hepatotoxicity [1]; Liver): 0; HepSE_liver disease (Hepatotoxicity [2]; Liver): 0; HepSE_jaundice (Hepatotoxicity [3]; Liver): 0; HepSE_hepatic necrosis (Hepatotoxicity [4]; Liver): 0; HepSE_hepatomegaly (Hepatotoxicity [5]; Liver): 0; HepSE_liver function tests abnormal (Hepatotoxicity [6]; Liver): 0; HepSE_cirrhosis (Hepatotoxicity [7]; Liver): 0; HepSE_Combined Scores (Hepatotoxicity [8]; Liver): 0; HepSE_hepatitis (Hepatotoxicity [9]; Liver): 0; HepSE_hepatic failure (Hepatotoxicity [10]; Liver): 0; HepSE_liver fatty (Hepatotoxicity [11]; Liver): 0; HepSE_cholelithiasis (Hepatotoxicity [12]; Liver): 0; HepSE_cholecystitis (Hepatotoxicity [13]; Liver): 0; HepSE_elevated liver function tests (Hepatotoxicity [14]; Liver): 0
CC(C)(C)C(=O)OCOP(=O)(COCCn1cnc2c(N)ncnc21)OCOC(=O)C(C)(C)C [ADEFOVIR DIPIVOXIL],0,0,0,0,0,0,0,1,0,1,0,0,0,0,–
C[N+]1(C)CCCC(OC(=O)C(O)(c2ccccc2)c2ccccc2)C1.[Br-] (configuration not stated) [MEPENZOLATE BROMIDE],0,0,0,0,0,0,0,0,0,0,0,0,0,0,–
CC(=O)O[C@]1(C(C)=O)CC[C@H]2[C@@H]3C=C(C)C4=CC(=O)CC[C@]4(C)[C@H]3CC[C@@]21C [MEGESTROL ACETATE],0,0,0,0,1,0,0,1,0,0,0,0,0,0,–
COc1ccc2[nH]c([S+]([O-])Cc3ncc(C)c(OC)c3C)nc2c1 (configuration not stated) [OMEPRAZOLE],1,1,1,1,0,0,0,7,1,1,0,1,0,0,–
Cc1c(O)cccc1C(=O)N[C@@H](CSc1ccccc1)[C@H](O)CN1C[C@H]2CCCC[C@H]2C[C@H]1C(=O)NC(C)(C)C,1,0,1,0,0,1,0,4,1,0,0,0,0,0,–
N[C@@H](Cc1c[nH]c2ccccc12)C(=O)O [TRYPTOPHAN],0,0,0,0,0,0,0,0,0,0,0,0,0,0,–
OC(CCN1CCCC1)(c1ccccc1)C1CCCCC1 (configuration not stated) [PROCYCLIDINE],0,0,0,0,0,0,0,0,0,0,0,0,0,0,–
CC(C(=O)O)c1cccc(Oc2ccccc2)c1 (configuration not stated) [FENOPROFEN],0,0,1,0,0,0,0,2,1,0,0,0,0,0,–
C[N+](C)(C)CC(O)CC(=O)[O-] (configuration not stated) [CARNITINE],0,0,0,0,0,0,0,0,0,0,0,0,0,0,–
CCCCC[C@H](O)/C=C/[C@H]1[C@H](O)CC(=O)[C@@H]1CCCCCCC(=O)O [ALPROSTADIL],1,0,0,0,0,0,0,1,0,0,0,0,0,0,–
N=C(N)NCCC[C@H](N)C(=O)O [ARGININE],0,0,0,0,0,0,0,0,0,0,0,0,0,0,–
CNCCCN1c2ccccc2CCc2ccccc21 [DESIPRAMINE],–,–,–,–,–,–,–,–,–,–,–,–,–,–,HepSE_bilirubinemia (Hepatotoxicity [1]; Liver): 0; HepSE_liver disease (Hepatotoxicity [2]; Liver): 0; HepSE_jaundice (Hepatotoxicity [3]; Liver): 1; HepSE_hepatic necrosis (Hepatotoxicity [4]; Liver): 0; HepSE_hepatomegaly (Hepatotoxicity [5]; Liver): 0; HepSE_liver function tests abnormal (Hepatotoxicity [6]; Liver): 0; HepSE_cirrhosis (Hepatotoxicity [7]; Liver): 0; HepSE_Combined Scores (Hepatotoxicity [8]; Liver): 3; HepSE_hepatitis (Hepatotoxicity [9]; Liver): 1; HepSE_hepatic failure (Hepatotoxicity [10]; Liver): 0; HepSE_liver fatty (Hepatotoxicity [11]; Liver): 0; HepSE_cholelithiasis (Hepatotoxicity [12]; Liver): 0; HepSE_cholecystitis (Hepatotoxicity [13]; Liver): 0; HepSE_elevated liver function tests (Hepatotoxicity [14]; Liver): 1
CCN[C@H]1C[C@H](C)S(=O)(=O)c2sc(S(N)(=O)=O)cc21 [DORZOLAMIDE],0,0,0,0,1,0,0,1,0,0,0,0,0,0,–
